# Numbers after ± are expanded uncertainties.
# Assay: excess molar enthalpy (molar enthalpy of mixing); xn = mol fraction of the nth substance listed
# Conditions: 298.15 K, 101 kPa, Liquid, Calvet calorimetry
smiles,measurement,setting,value
CCCCCCCCCC [decane] + CCCO,excess molar enthalpy,x2 = 0.1544,0.659 ± 0.014 kJ/mol
same,excess molar enthalpy,x2 = 0.1615,0.678 ± 0.015 kJ/mol
same,excess molar enthalpy,x2 = 0.2718,0.768 ± 0.017 kJ/mol
same,excess molar enthalpy,x2 = 0.3642,0.792 ± 0.017 kJ/mol
same,excess molar enthalpy,x2 = 0.4594,0.786 ± 0.017 kJ/mol
same,excess molar enthalpy,x2 = 0.5576,0.737 ± 0.016 kJ/mol
same,excess molar enthalpy,x2 = 0.6121,0.689 ± 0.015 kJ/mol
same,excess molar enthalpy,x2 = 0.6669,0.633 ± 0.014 kJ/mol
same,excess molar enthalpy,x2 = 0.7249,0.571 ± 0.012 kJ/mol
same,excess molar enthalpy,x2 = 0.7574,0.522 ± 0.011 kJ/mol
same,excess molar enthalpy,x2 = 0.7667,0.515 ± 0.011 kJ/mol
same,excess molar enthalpy,x2 = 0.8113,0.447 ± 0.01 kJ/mol
same,excess molar enthalpy,x2 = 0.8517,0.374 ± 0.008 kJ/mol
same,excess molar enthalpy,x2 = 0.885,0.31 ± 0.007 kJ/mol
same,excess molar enthalpy,x2 = 0.9219,0.224 ± 0.005 kJ/mol
same,excess molar enthalpy,x2 = 0.9602,0.122 ± 0.003 kJ/mol
same,excess molar enthalpy,x2 = 0.9832,0.043 ± 0.002 kJ/mol
